ChEMBL document CHEMBL3612057, “Discovery of indolizines containing triazine moiety as new leads for the development of antitumoral agents targeting mitotic events” (2015)
Calls of active or inactive are those of the source. The rule behind the calls is not given here.

Legend:
PC-3 = assay: Cytotoxicity against human PC3 cells assessed as growth inhibition at 10 uM after 24 hrs by SRB assay; type: functional
TK-10 = assay: Cytotoxicity against human TK10 cells assessed as growth inhibition at 10 uM after 24 hrs by SRB assay; type: functional
SF-295 = assay: Cytotoxicity against human SF295 cells assessed as growth inhibition at 10 uM after 24 hrs by SRB assay; type: functional
MCF7 = assay: Cytotoxicity against human MCF7 cells assessed as growth inhibition at 10 uM after 24 hrs by SRB assay; type: functional
OVCAR-3 = assay: Cytotoxicity against human OVCAR3 cells assessed as growth inhibition at 10 uM after 24 hrs by SRB assay; type: functional
SK-MEL-5 = assay: Cytotoxicity against human SK-MEL-5 cells assessed as growth inhibition at 10 uM after 24 hrs by SRB assay; type: functional
NCI-H226 = assay: Cytotoxicity against human NCI-H226 cells assessed as growth inhibition at 10 uM after 24 hrs by SRB assay; type: functional
SR = assay: Cytotoxicity against human SR cells assessed as growth inhibition at 10 uM after 24 hrs by SRB assay; type: functional
786-0 = assay: Cytotoxicity against human 786-0 cells assessed as growth inhibition at 10 uM after 24 hrs by SRB assay; type: functional
OVCAR-4 = assay: Cytotoxicity against human OVCAR4 cells assessed as growth inhibition at 10 uM after 24 hrs by SRB assay; type: functional
A549 = assay: Cytotoxicity against human A549 cells assessed as growth inhibition at 10 uM after 24 hrs by SRB assay; type: functional
U-251 = assay: Cytotoxicity against human U251 cells assessed as growth inhibition at 10 uM after 24 hrs by SRB assay; type: functional
Hs-578T = assay: (§1) Cytotoxicity against human Hs578T cells assessed as growth inhibition at 10 uM after 24 hrs by SRB assay; type: functional
SF-539 = assay: Cytotoxicity against human SF539 cells assessed as growth inhibition at 10 uM after 24 hrs by SRB assay; type: functional
MDA-MB-435 = assay: Cytotoxicity against human MDA-MB-435 cells assessed as growth inhibition at 10 uM after 24 hrs by SRB assay; type: functional
RXF 393 = assay: Cytotoxicity against human RXF393 cells assessed as growth inhibition at 10 uM after 24 hrs by SRB assay; type: functional; conditions: RXF 393, 24 h, read-out: GI
HCT-116 = assay: Cytotoxicity against human HCT116 cells assessed as growth inhibition at 10 uM after 24 hrs by SRB assay; type: functional
SK-MEL-28 = assay: Cytotoxicity against human SK-MEL-28 cells assessed as growth inhibition at 10 uM after 24 hrs by SRB assay; type: functional
SK-OV-3 = assay: Cytotoxicity against human SKOV3 cells assessed as growth inhibition at 10 uM after 24 hrs by SRB assay; type: functional
SNB-75 = assay: Cytotoxicity against human SNB75 cells assessed as growth inhibition at 10 uM after 24 hrs by SRB assay; type: functional; conditions: for inhibition of growth at 10 µM: SNB-75, 24 h, read-out: GI
Malme-3M = assay: Cytotoxicity against human MALME-3M cells assessed as growth inhibition at 10 uM after 24 hrs by SRB assay; type: functional
HOP-92 = assay: Cytotoxicity against human HOP92 cells assessed as growth inhibition at 10 uM after 24 hrs by SRB assay; type: functional
HOP-62 = assay: Cytotoxicity against human HOP62 cells assessed as growth inhibition at 10 uM after 24 hrs by SRB assay; type: functional
NCI-H460 = assay: Cytotoxicity against human NCI-H460 cells assessed as growth inhibition at 10 uM after 24 hrs by SRB assay; type: functional
CAKI-1 = assay: Cytotoxicity against human CAKI-1 cells assessed as growth inhibition at 10 uM after 24 hrs by SRB assay; type: functional
ACHN = assay: Cytotoxicity against human ACHN cells assessed as growth inhibition at 10 uM after 24 hrs by SRB assay; type: functional
T47D = assay: Cytotoxicity against human T47D cells assessed as growth inhibition at 10 uM after 24 hrs by SRB assay; type: functional
UACC-257 = assay: Cytotoxicity against human UACC257 cells assessed as growth inhibition at 10 uM after 24 hrs by SRB assay; type: functional; conditions: for inhibition of growth at 10 µM: UACC-257, 24 h, read-out: GI
HL-60(TB) = assay: Cytotoxicity against human HL-60(TB) cells assessed as growth inhibition at 10 uM after 24 hrs by SRB assay; type: functional
NCI-H522 = assay: Cytotoxicity against human NCI-H522 cells assessed as growth inhibition at 10 uM after 24 hrs by SRB assay; type: functional
MDA-MB-231 = assay: Cytotoxicity against human MDA-MB-231 cells assessed as growth inhibition at 10 uM after 24 hrs by SRB assay; type: functional; conditions: for inhibition of growth at 10 µM: MDA-MB-231, 24 h, read-out: GI
OVCAR-8 = assay: Cytotoxicity against human OVCAR8 cells assessed as growth inhibition at 10 uM after 24 hrs by SRB assay; type: functional
UACC-62 = assay: Cytotoxicity against human UACC62 cells assessed as growth inhibition at 10 uM after 24 hrs by SRB assay; type: functional
RPMI-8226 = assay: Cytotoxicity against human RPMI8226 cells assessed as growth inhibition at 10 uM after 24 hrs by SRB assay; type: functional
K562 = assay: Cytotoxicity against human K562 cells assessed as growth inhibition at 10 uM after 24 hrs by SRB assay; type: functional
NCI/ADR-RES = assay: Cytotoxicity against human NCI/ADR-RES cells assessed as growth inhibition at 10 uM after 24 hrs by SRB assay; type: functional
CCRF-CEM = assay: Cytotoxicity against human CCRF-CEM cells assessed as growth inhibition at 10 uM after 24 hrs by SRB assay; type: functional
Ovis aries = species on record: Ovis aries; assay: Inhibition of sheep tubulin polymerization at 100 uM by fluorescence assay
[1] = as §1; type: functional; conditions: Hs-578T, read-out: GI

Compound | growth inhibition (GI) (PC-3) | growth inhibition (GI) (TK-10) | growth inhibition (GI) (OVCAR-3) | growth inhibition (GI) (SK-MEL-5) | growth inhibition (GI) (NCI-H226) | growth inhibition (GI) (786-0) | growth inhibition (GI) (A549) | growth inhibition (GI) (U-251) | growth inhibition (GI) (SF-539) | growth inhibition (GI) (MDA-MB-435) | growth inhibition (GI) (HCT-116) | growth inhibition (GI) (SK-OV-3) | growth inhibition (GI) (HOP-92) | growth inhibition (GI) (NCI-H460) | growth inhibition (GI) (CAKI-1) | growth inhibition (GI) (ACHN) | growth inhibition (GI) (T47D) | growth inhibition (GI) (HL-60(TB)) | growth inhibition (GI) (NCI-H522) | growth inhibition (GI) (OVCAR-8) | other results
COc1nc(OC)nc(-c2cc(C(=O)c3ccc(Br)cc3)n3ccc(C#N)cc23)n1 | inactive | inactive | inactive | inactive | inactive | inactive | inactive | inactive | inactive | inactive | inactive | inactive | inactive | inactive | inactive | inactive | inactive | inactive | inactive | inactive | growth inhibition (GI) (SF-295): inactive; growth inhibition (GI) (MCF7): inactive; growth inhibition (GI) (SR): inactive; growth inhibition (GI) (OVCAR-4): inactive; growth inhibition (GI) (Hs-578T): inactive; inhibition of growth at 10 µM (RXF 393): 14%; growth inhibition (GI) (SK-MEL-28): inactive; inhibition of growth at 10 µM (SNB-75): 27%; growth inhibition (GI) (Malme-3M): inactive; growth inhibition (GI) (HOP-62): inactive; inhibition of growth at 10 µM (UACC-257): 11%; inhibition of growth at 10 µM (MDA-MB-231): 11%; growth inhibition (GI) (UACC-62): inactive; growth inhibition (GI) (RPMI-8226): inactive; growth inhibition (GI) (K562): inactive; growth inhibition (GI) (NCI/ADR-RES): inactive; growth inhibition (GI) (CCRF-CEM): inactive; inhibition (Ovis aries): inactive
COc1ccc(C(=O)c2cc(-c3nc(OC)nc(OC)n3)c3cc(C#N)ccn23)cc1 | inactive | inactive | inactive | inactive | inactive | inactive | inactive | inactive | inactive | inactive | inactive | inactive | inactive | inactive | inactive | inactive | inactive | inactive | inactive | inactive | growth inhibition (GI) (SF-295): inactive; growth inhibition (GI) (MCF7): inactive; inhibition of growth at 10 µM (SR; read-out: GI): 13%; growth inhibition (GI) (OVCAR-4): inactive; inhibition of growth at 10 µM [1]: 16%; inhibition of growth at 10 µM (RXF 393): 14%; growth inhibition (GI) (SK-MEL-28): inactive; inhibition of growth at 10 µM (SNB-75): 46%; growth inhibition (GI) (Malme-3M): inactive; inhibition of growth at 10 µM (HOP-62; HOP-62, 24 h, read-out: GI): 25%; growth inhibition (GI) (UACC-257): inactive; inhibition of growth at 10 µM (MDA-MB-231): 18%; growth inhibition (GI) (UACC-62): inactive; growth inhibition (GI) (RPMI-8226): inactive; growth inhibition (GI) (K562): inactive; growth inhibition (GI) (NCI/ADR-RES): inactive; growth inhibition (GI) (CCRF-CEM): inactive; inhibition (Ovis aries): inactive
COc1nc(OC)nc(-c2cc(C(=O)c3ccc(Br)cc3)n3ccc(C)cc23)n1 | inactive | inactive | inactive | inactive | inactive | inactive | inactive | inactive | inactive | inactive | inactive | inactive | inactive | inactive | inactive | inactive | inactive | inactive | inactive | inactive | inhibition of growth at 10 µM (SF-295; SF-295, 24 h, read-out: GI): 20%; inhibition of growth at 10 µM (MCF7; MCF7, 24 h, read-out: GI): 38%; growth inhibition (GI) (SR): inactive; inhibition of growth at 10 µM (OVCAR-4; OVCAR-4, 24 h, read-out: GI): 95%; growth inhibition (GI) (Hs-578T): inactive; inhibition of growth at 10 µM (SK-MEL-28; SK-MEL-28, 24 h, read-out: GI): 30%; growth inhibition (GI) (SNB-75): inactive; inhibition of growth at 10 µM (Malme-3M; read-out: GI): 73%; growth inhibition (GI) (HOP-62): inactive; inhibition of growth at 10 µM (UACC-257): 31%; growth inhibition (GI) (MDA-MB-231): inactive; growth inhibition (GI) (UACC-62): inactive; growth inhibition (GI) (RPMI-8226): inactive; growth inhibition (GI) (K562): inactive; growth inhibition (GI) (NCI/ADR-RES): inactive; growth inhibition (GI) (CCRF-CEM): inactive; inhibition (Ovis aries): inactive
